Read-outs that look alike come from different tables or passages of the source.
How the values were obtained:
MCF-7 cell line = experiment: In vitro antitumor MTT assay, MCF-7; format: cell-based
Method: (§3) The antitumor activity was performed by using the tetrazolium salt 3-(4,5-dimethyl-2-thiazolyl)-2,5-diphenyl-2H-tetrazolium bromide (MTT) assay in accordance with an established method[39].

HeLa cell line = experiment: In vitro antitumor MTT assay, HeLa; format: cell-based
Method: (§1) The antitumor activity was performed by using the tetrazolium salt 3-(4,5-dimethyl-2-thiazolyl)-2,5-diphenyl-2H-tetrazolium bromide (MTT) assay in accordance with an established method.
(§2) Compounds 3a–c, 4a,b, 5a,b, 6a,b, 7a–e, 8, 9a–c, 10, 11, 12a–c, 13, and 14 were screened for their in vitro antitumor activity by using the standard 3-(4,5-dimethylthiazol-2-yl)-2,5-diphenyltetrazolium bromide (MTT) assay against five human cancers: HePG2, HCT-116, MCF-7, PC3, and HeLa cell lines. […].

PC3 cell line = experiment: In vitro antitumor MTT assay, PC3; format: cell-based
Method: as §3

HCT-116 cell line = experiment: In vitro antitumor MTT assay, HCT-116; format: cell-based
Method: as §3

HePG2 cell line = experiment: In vitro antitumor MTT assay, HePG2; format: cell-based
Method: as §1, §2

[1] = test system: HePG2, HCT-116, MCF-7, PC3, and HeLa cell lines; experiment: In vitro antitumor MTT assay, panel of five human cancer cell lines (text summaries); format: cell-based; conditions: read-out: IC50, antitumor activity, range over the tested cancer cell lines
Method: as §1, §2

[2] = Homo sapiens, MCF7, read-out: IC50 (µM) MCF-7
[3] = Homo sapiens, read-out: IC50 (µM) HeLa
[4] = Homo sapiens, PC-3, read-out: IC50 (µM) PC3
[5] = Homo sapiens, HCT-116, read-out: IC50 (µM) HCT-116
[6] = Homo sapiens, HepG2, read-out: IC50 (µM) HePG2
[7] = Homo sapiens, MCF7; read-out: IC50 (µM) MCF-7
[8] = Homo sapiens; read-out: IC50 (µM) HeLa
[9] = Homo sapiens, PC-3; read-out: IC50 (µM) PC3
[10] = Homo sapiens, HCT-116; read-out: IC50 (µM) HCT-116
[11] = Homo sapiens, HepG2; read-out: IC50 (µM) HePG2
[12] = Homo sapiens, range over (all or some of) HePG2, HCT-116, MCF-7, PC3, HeLa

Row | Compound | IC50 (MCF-7 cell line; [2]) [µM] | IC50 (HeLa cell line; [3]) [µM] | IC50 (PC3 cell line; [4]) [µM] | IC50 (HCT-116 cell line; [5]) [µM] | melting point [°C] | IC50 (HePG2 cell line; [6]) [µM] | IC50 ([1]; Homo sapiens) [µM] | IC50 (MCF-7 cell line; [7]) [µM] | IC50 (HeLa cell line; [8]) [µM] | IC50 (PC3 cell line; [9]) [µM] | IC50 (HCT-116 cell line; [10]) [µM] | IC50 (HePG2 cell line; [11]) [µM] | IC50 [1, 12] [µM] | IC50 ([1]; range over (all or some of) HePG2, HCT-116, MCF-7, PC3, HeLa) [µM]
1 | COc1ccc(-c2nc3c4ccccc4c4ccccc4c3n2-c2ccc(C)cc2)cc1OC1CCCC1 [Compound 7c, 2-(3-(Cyclopentyloxy)-4-methoxyphenyl)-1-(4-methylphenyl)-1H-phenanthro[9,10-d]imidazole] | 65.3 ± 3.4 | 53.2 ± 3.7 | 68.1 ± 3.5 | 81.2 ± 4.2 | 291 to 294 | 57.1 ± 3.9 | 53.2 to 90.3 | – | – | – | – | – | – | –
2 | COc1ccc(C(=S)N(C)C)cc1OC1CCCC1 [Compound 11, 3-(Cyclopentyloxy)-4-methoxy-N,N-dimethylbenzothioamide] | – | – | – | – | 189 to 191 | – | – | 94.3 ± 4.7 | 90.9 ± 4.9 | 88.6 ± 5 | 96.8 ± 5.5 | 91.2 ± 4.8 | 88.6 to 96.8 | –
3 | COc1ccc(C2NC(=S)NC3=C2C(=O)CC(C)(C)C3)cc1OC1CCCC1 (stereo not drawn) [Compound 6b, 4-(3-(Cyclopentyloxy)-4-methoxyphenyl)-7,7-dimethyl-2-thioxo-2,3,4,6,7,8-hexahydroquinazolin-5(1H)-one] | – | – | – | – | 233 to 235 | – | – | 10.3 ± 1.1 | 13.5 ± 1.4 | 17.9 ± 1.6 | 25.4 ± 1.7 | 16.1 ± 1.4 | 10.3 to 25.4 | –
4 | COc1ccc(C(=S)Nc2ccc(F)cc2)cc1OC1CCCC1 [Compound 10, 3-(Cyclopentyloxy)-N-(4-fluorophenyl)-4-methoxybenzothioamide] | – | – | – | – | 194 to 196 | – | – | 64.1 ± 3.1 | 52.5 ± 3.7 | 47.3 ± 2.9 | 79.1 ± 3.8 | 49.9 ± 3.5 | 47.3 to 79.1 | –
5 | CN(C)C/C=C/C(=O)Nc1cc2c(Nc3ccc(F)c(Cl)c3)ncnc2cc1O[C@H]1CCOC1 [Afatinib, afatinib, reference compound] | – | – | – | – | – | – | – | 7.1 ± 0.49 | 6.2 ± 0.67 | 7.7 ± 0.57 | 11.4 ± 1.26 | 5.4 ± 0.25 | 5.4 to 11.4 | –
6 | COc1ccc(C=C2CCCCCC2=O)cc1OC1CCCC1 [Compound 3c, 2-(3-(Cyclopentyloxy)-4-methoxybenzylidene)cycloheptanone] | – | – | – | – | 250 to 252 | – | – | > 100 | 81.7 ± 4.7 | > 100 | 93.5 ± 5.1 | 86.9 ± 4.5 | – | –
7 | COc1ccc(C=C2CCCC2=O)cc1OC1CCCC1 [Compound 3a, 2-(3-(Cyclopentyloxy)-4-methoxybenzylidene)cyclopentanone] | – | – | – | – | – | – | – | 56.1 ± 2.6 | 59.1 ± 3.8 | 51.4 ± 3 | > 100 | 96 ± 5.2 | – | –
8 | COc1ccc(-c2nc3n(c(=O)c2C#N)C(=O)CS3)cc1OC1CCCC1 [Compound 14, 7-(3-(Cyclopentyloxy)-4-methoxyphenyl)-3,5-dioxo-2,3-dihydro-5H-thiazolo[3,2-a]pyrimidine-6-carbonitrile] | – | – | – | – | 265 to 267 | – | – | 9.62 ± 0.9 | 12.5 ± 1.2 | 15.3 ± 1.3 | 34.9 ± 1.9 | 20.1 ± 1.8 | 5.86 to 20.1 | –
9 | COc1ccc(C2NC(=S)NC3=C2CCCCC3)cc1OC1CCCC1 (stereo not drawn) [Compound 5b, 4-(3-(Cyclopentyloxy)-4-methoxyphenyl)-1,3,4,5,6,7,8,9-octahydro-2H-cyclohepta[d]pyrimidine-2-thione] | – | – | – | – | – | – | – | 81.2 ± 4.3 | 46.3 ± 3 | 55.2 ± 3.1 | 61.1 ± 3.6 | 59.1 ± 3.5 | – | –
10 | COc1ccc(-c2cc(-c3ccc(Cl)c(Cl)c3)[nH]c(=O)c2C#N)cc1OC1CCCC1 [Compound 12c, 4-(3-(Cyclopentyloxy)-4-methoxyphenyl)-6-(3,4-dichlorophenyl)-2-oxo-1,2-dihydropyridine-3-carbonitrile] | – | – | – | – | > 300 | – | – | 66.1 ± 3.7 | 62.8 ± 3.9 | 73.5 ± 3.8 | 83.4 ± 4.3 | 59.6 ± 4 | – | –
11 | COc1ccc(C=C2CCCCC2=O)cc1OC1CCCC1 [Compound 3b, 2-(3-(Cyclopentyloxy)-4-methoxybenzylidene)cyclohexanone] | – | – | – | – | 245 to 247 | – | – | 23.8 ± 1.5 | 26.1 ± 1.9 | 19.3 ± 1.8 | 80.6 ± 3.9 | 53.9 ± 3.7 | – | –
12 | COc1ccc(C(=S)N2CCOCC2)cc1OC1CCCC1 [Compound 9a, (3-(Cyclopentyloxy)-4-methoxyphenyl)(morpholino)methanethione] | – | – | – | – | 190 to 192 | – | – | 35.2 ± 1.9 | 37.5 ± 2.5 | 29.2 ± 2.3 | 48.1 ± 2.4 | 32.9 ± 2.3 | 29.2 to 48.1 | –
13 | COc1ccc(C2NC(=S)NC3=C2CCCC3)cc1OC1CCCC1 (stereo not drawn) [Compound 5a, 4-(3-(Cyclopentyloxy)-4-methoxyphenyl)-3,4,5,6,7,8-hexahydroquinazoline-2(1H)-thione] | – | – | – | – | 199 to 201 | – | – | 92.4 ± 5.2 | 84.3 ± 4.6 | 79 ± 4.1 | 66.5 ± 3.8 | 73.4 ± 3.7 | – | –
14 | COc1ccc(C(=S)N2CCN(C(=O)OC(C)(C)C)CC2)cc1OC1CCCC1 [Compound 9c, tert-Butyl 4-(3-(cyclopentyloxy)-4-methoxyphenylcarbonothioyl)piperazine-1-carboxylate] | – | – | – | – | 191 to 193 | – | – | 48.9 ± 2.3 | 40.6 ± 2.8 | 33.4 ± 2.6 | 52.9 ± 2.7 | 36.3 ± 2.5 | 33.4 to 52.9 | –
15 | COc1ccc(-c2nc3c4ccccc4c4ccccc4c3[nH]2)cc1OC1CCCC1 [Compound 7a, 2-(3-(Cyclopentyloxy)-4-methoxyphenyl)-1H-phenanthro[9,10-d]imidazole] | 89.8 ± 4.3 | 77.6 ± 4.6 | > 100 | 90.3 ± 4.9 | 290 to 292 | 78.2 ± 4.4 | 53.2 to 90.3 | – | – | – | – | – | – | –
16 | COc1ccc(-c2cc(-c3ccc(C)cc3)[nH]c(=O)c2C#N)cc1OC1CCCC1 [Compound 12b, 4-(3-(cyclopentyloxy)-4-methoxyphenyl)-2-oxo-6-(p-tolyl)-1,2-dihydropyridine-3-carbonitrile] | – | – | – | – | > 300 | – | – | 58.3 ± 2.7 | 45.7 ± 3.2 | 61.5 ± 3.3 | 67.7 ± 3.5 | 38.1 ± 2.8 | – | –
17 | COc1ccc(C2C3=C(CC(C)(C)CC3=O)NC3=C2C(=O)CC(C)(C)C3)cc1OC1CCCC1 [Compound 8, 9-(3-(Cyclopentyloxy)-4-methoxyphenyl)-3,3,6,6-tetramethyl-3,4,6,7,9,10-hexahydroacridine-1,8(2H,5H)-dione] | – | – | – | – | 286 to 287 | – | – | 60.5 ± 2.8 | 43.5 ± 2.9 | 55.8 ± 3.2 | 70.5 ± 3.5 | 41.8 ± 3 | 29.8 to 47 | 41.8 to 70.5
18 | COc1cccc2c1C(=O)c1c(O)c3c(c(O)c1C2=O)C[C@@](O)(C(=O)CO)C[C@@H]3O[C@H]1C[C@H](N)[C@H](O)[C@H](C)O1 [DOX, doxorubicin, reference compound] | – | – | – | – | – | – | – | – | – | – | – | – | 4.17 to 8.87 | –
19 | COc1ccc(-c2cc(-c3ccccc3)[nH]c(=O)c2C#N)cc1OC1CCCC1 [Compound 12a, 4-(3-(Cyclopentyloxy)-4-methoxyphenyl)-2-oxo-6-phenyl-1,2-dihydropyridine-3-carbonitrile] | – | – | – | – | > 300 | – | – | 71.6 ± 3.9 | 65.7 ± 4.1 | 79.8 ± 4 | 76 ± 3.6 | 45.2 ± 3.4 | – | –

— publication PMC7144195, “Synthesis, antitumor activity, and molecular docking study of 2-cyclopentyloxyanisole derivatives: mechanistic study of enzyme inhibition” (Journal of Enzyme Inhibition and Medicinal Chemistry, 2020)
